{"source": "patent US12077503B2", "about": "“Substituted cyclic amides and their use as herbicides” (FMC CORPORATION, priority 2015, dated 2024)", "format_in_all_cases": "in vivo", "key": {"Kochia (Kochia scoparia) [1]": {"tested_on": "Kochia (Kochia scoparia)", "assay": "Test A preemergence", "settings": "Bassia scoparia, pre-emergence, 240 h, preemergence, 0 to 100 scale where 0 is no effect and 100 is complete control, read-out: Kochia plant response rating", "summary_of_the_method": "(§1)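 Compounds were formulated in a non-phytotoxic solvent mixture with surfactant and applied as a preemergence directed soil spray after seeding, or sprayed postemergence over plants 2 to 10 cm tall at the one- to two-leaf stage. Evaluation after about 10 d compared treated with untreated controls, using a scale from 0 (no effect) to 100 (complete control).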"}, "[2]": {"tested_on": "barnyardgrass (Echinochloa crus-galli)", "assay": "Test A preemergence", "settings": "Echinochloa crus-galli, pre-emergence, 240 h, preemergence, 0 to 100 scale where 0 is no effect and 100 is complete control, read-out: Barnyardgrass plant response rating", "summary_of_the_method": "as §1"}, "[3]": {"tested_on": "giant foxtail (Setaria faberii)", "assay": "Test A preemergence", "settings": "Setaria faberi, pre-emergence, 240 h, preemergence, 0 to 100 scale where 0 is no effect and 100 is complete control, read-out: Foxtail, Giant plant response rating", "summary_of_the_method": "as §1"}, "[4]": {"tested_on": "pigweed (Amaranthus retroflexus)", "assay": "Test A preemergence", "settings": "Amaranthus retroflexus, pre-emergence, 240 h, preemergence, 0 to 100 scale where 0 is no effect and 100 is complete control, read-out: Pigweed plant response rating"}, "[5]": {"tested_on": "ragweed (common ragweed, Ambrosia elatior)", "assay": "Test A preemergence", "settings": "Ambrosia artemisiifolia, pre-emergence, 240 h, preemergence, 0 to 100 scale where 0 is no effect and 100 is complete control, read-out: Ragweed plant response rating", "summary_of_the_method": "as §1"}, "[6]": {"tested_on": "ryegrass, Italian (Italian ryegrass, Lolium multiflorum)", "assay": "Test A preemergence", "settings": "Lolium multiflorum, pre-emergence, 240 h, preemergence, 0 to 100 scale where 0 is no effect and 100 is complete control, read-out: Ryegrass, Italian plant response rating", "summary_of_the_method": "as §1"}, "[7]": {"tested_on": "Galium (catchweed bedstraw, Galium aparine)", "assay": "Test A postemergence", "settings": "Galium, post-emergence, 240 h, postemergence, read-out: Galium plant response rating", "summary_of_the_method": "as §1"}, "Kochia (Kochia scoparia) [8]": {"tested_on": "Kochia (Kochia scoparia)", "assay": "Test A postemergence", "settings": "Bassia scoparia, post-emergence, 240 h, postemergence, read-out: Kochia plant response rating", "summary_of_the_method": "as §1"}, "[9]": {"tested_on": "barnyardgrass (Echinochloa crus-galli)", "assay": "Test A postemergence", "settings": "Echinochloa crus-galli, post-emergence, 240 h, postemergence, read-out: Barnyardgrass plant response rating", "summary_of_the_method": "as §1"}, "[10]": {"tested_on": "blackgrass (Alopecurus myosuroides)", "assay": "Test A postemergence", "settings": "Alopecurus myosuroides, post-emergence, 240 h, postemergence, read-out: Blackgrass plant response rating", "summary_of_the_method": "as §1"}, "corn (Zea mays)": {"tested_on": "corn (Zea mays)", "assay": "Test A postemergence", "settings": "Zea mays, post-emergence, 240 h, postemergence, read-out: Corn plant response rating", "summary_of_the_method": "as §1"}, "[11]": {"tested_on": "pigweed (Amaranthus retroflexus)", "assay": "Test A postemergence", "settings": "Amaranthus retroflexus, post-emergence, 240 h, postemergence", "summary_of_the_method": "as §1"}, "[12]": {"tested_on": "ragweed (common ragweed, Ambrosia elatior)", "assay": "Test A postemergence", "settings": "Ambrosia artemisiifolia, post-emergence, 240 h, postemergence", "summary_of_the_method": "as §1"}, "[13]": {"tested_on": "ryegrass, Italian (Italian ryegrass, Lolium multiflorum)", "assay": "Test A postemergence", "settings": "Lolium multiflorum, post-emergence, 240 h, postemergence", "summary_of_the_method": "as §1"}, "[14]": {"tested_on": "wheat (Triticum aestivum)", "assay": "Test A postemergence", "settings": "Triticum aestivum, post-emergence, 240 h, postemergence", "summary_of_the_method": "as §1"}, "[15]": {"settings": "125 g ai/ha, visual injury on 0 to 100 scale (0 no effect, 100 complete control), approx. 10 d"}, "[16]": {"settings": "500 g ai/ha, 0 to 100 scale, 0 is no effect, 100 is complete control"}}}
{"compound": "CN1C[C@H](c2ccc(F)c(F)c2)[C@@H](C(=S)Nc2ccccc2F)C1=O", "note": "(racemic) [Compound 1153]", "values": [{"measurement": "pest or weed control at 125 g/ha", "setting": "Kochia (Kochia scoparia) [1]; 125 g ai/ha, approx. 10 d", "value": 60, "unit": "%"}, {"measurement": "pest or weed control at 500 g/ha", "setting": "Kochia (Kochia scoparia) [1]; 500 g ai/ha", "value": 70, "unit": "%"}, {"measurement": "pest or weed control at 125 g/ha", "setting": "[2]; 125 g ai/ha, approx. 10 d", "value": 80, "unit": "%"}, {"measurement": "pest or weed control at 500 g/ha", "setting": "[2]; 500 g ai/ha", "value": 90, "unit": "%"}, {"measurement": "pest or weed control at 125 g/ha", "setting": "[3]; 125 g ai/ha, approx. 10 d", "value": 90, "unit": "%"}, {"measurement": "pest or weed control at 500 g/ha", "setting": "[3]; 500 g ai/ha", "value": 90, "unit": "%"}, {"measurement": "pest or weed control at 125 g/ha", "setting": "[4]; 125 g ai/ha, approx. 10 d", "value": 0, "unit": "%"}, {"measurement": "pest or weed control at 500 g/ha", "setting": "[4]; 500 g ai/ha", "value": 0, "unit": "%"}, {"measurement": "pest or weed control at 125 g/ha", "setting": "[5]; 125 g ai/ha, approx. 10 d", "value": 0, "unit": "%"}, {"measurement": "pest or weed control at 500 g/ha", "setting": "[5]; 500 g ai/ha", "value": 0, "unit": "%"}, {"measurement": "pest or weed control at 125 g/ha", "setting": "[6]; 125 g ai/ha, approx. 10 d", "value": 30, "unit": "%"}, {"measurement": "pest or weed control at 500 g/ha", "setting": "[6]; 500 g ai/ha", "value": 50, "unit": "%"}, {"measurement": "pest or weed control at 125 g/ha", "setting": "[7]; [15]", "value": 30, "unit": "%"}, {"measurement": "pest or weed control at 500 g/ha", "setting": "[7]; [16]", "value": 40, "unit": "%"}, {"measurement": "pest or weed control at 125 g/ha", "setting": "Kochia (Kochia scoparia) [8]; [15]", "value": 0, "unit": "%"}, {"measurement": "pest or weed control at 500 g/ha", "setting": "Kochia (Kochia scoparia) [8]; [16]", "value": 0, "unit": "%"}, {"measurement": "pest or weed control at 125 g/ha", "setting": "[9]; [15]", "value": 90, "unit": "%"}, {"measurement": "pest or weed control at 500 g/ha", "setting": "[9]; [16]", "value": 90, "unit": "%"}, {"measurement": "pest or weed control at 125 g/ha", "setting": "[10]; [15]", "value": 0, "unit": "%"}, {"measurement": "pest or weed control at 500 g/ha", "setting": "[10]; [16]", "value": 30, "unit": "%"}, {"measurement": "plant injury at 125 g/ha", "setting": "corn (Zea mays); [15]", "value": 0, "unit": "%"}, {"measurement": "plant injury at 500 g/ha", "setting": "corn (Zea mays); [16]", "value": 0, "unit": "%"}, {"measurement": "pest or weed control at 125 g/ha", "setting": "[11]; 125 g ai/ha, visual injury vs untreated controls after approx. 10 d, 0 = no effect, 100 = complete control, read-out: Pigweed plant response rating (0 to 100 scale)", "value": 0, "unit": "%"}, {"measurement": "pest or weed control at 500 g/ha", "setting": "[11]; 500 g ai/ha, 0 to 100 scale, 0 is no effect, 100 is complete control, read-out: Pigweed plant response rating", "value": 0, "unit": "%"}, {"measurement": "pest or weed control at 125 g/ha", "setting": "[12]; 125 g ai/ha, visual injury vs untreated controls after approx. 10 d, 0 = no effect, 100 = complete control, read-out: Ragweed plant response rating (0 to 100 scale)", "value": 0, "unit": "%"}, {"measurement": "pest or weed control at 500 g/ha", "setting": "[12]; 500 g ai/ha, 0 to 100 scale, 0 is no effect, 100 is complete control, read-out: Ragweed plant response rating", "value": 0, "unit": "%"}, {"measurement": "pest or weed control at 125 g/ha", "setting": "[13]; 125 g ai/ha, visual injury vs untreated controls after approx. 10 d, 0 = no effect, 100 = complete control, read-out: Ryegrass, Italian plant response rating (0 to 100 scale)", "value": 0, "unit": "%"}, {"measurement": "pest or weed control at 500 g/ha", "setting": "[13]; 500 g ai/ha, 0 to 100 scale, 0 is no effect, 100 is complete control, read-out: Ryegrass, Italian plant response rating", "value": 0, "unit": "%"}, {"measurement": "plant injury at 125 g/ha", "setting": "[14]; 125 g ai/ha, visual injury vs untreated controls after approx. 10 d, 0 = no effect, 100 = complete control, read-out: Wheat plant response rating (0 to 100 scale)", "value": 0, "unit": "%"}, {"measurement": "plant injury at 500 g/ha", "setting": "[14]; 500 g ai/ha, 0 to 100 scale, 0 is no effect, 100 is complete control, read-out: Wheat plant response rating", "value": 0, "unit": "%"}]}
